# According to patent US11608323B2 (SYNGENTA LIMITED, priority 2013, dated 2023):
# Columns and labels:
# Type in all cases: in vivo
# [1] = tested on: SETFA; assay: Pre-emergence herbicidal activity, glasshouse pot test; settings: rate 1000 g/Ha, evaluated after 13 days, scale 0-5
# How it was run: (§1)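 Damage rated 13 days post-treatment on a 0-5 scale, 5 meaning total plant damage. Pots were sprayed pre-emergence, one day after sowing, with an acetone/water-derived aqueous spray containing 0.5% Tween 20. Plants grew under 14 h light, 65% humidity, 24/16 °C, watered twice daily.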
# [2] = tested on: AMARE; assay: as above; settings: rate 1000 g/Ha, evaluated after 13 days, scale 0-5
# How it was run: as §1
# [3] = tested on: ALOMY; assay: as above; settings: rate 1000 g/Ha, evaluated after 13 days, scale 0-5
# How it was run: as §1
# [4] = tested on: ABUTH; assay: as above; settings: rate 1000 g/Ha, evaluated after 13 days, scale 0-5
# How it was run: as §1
# [5] = tested on: ECHCG; assay: as above; settings: rate 1000 g/Ha, evaluated after 13 days, scale 0-5
# How it was run: as §1
# [6] = tested on: ZEAMX; assay: as above; settings: rate 1000 g/Ha, evaluated after 13 days, scale 0-5
# How it was run: as §1
# [7] = tested on: SETFA; assay: Post-emergence herbicidal activity, glasshouse pot test; settings: Setaria faberi; application post-emergence; rate 1000 g/Ha; evaluated after 13 days
# How it was run: (§2)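 Damage was rated 0-5 (5 = total) 13 days after a post-emergence spray of acetone/water (50:50) plus 0.5% Tween 20 formulation. Plants were sprayed at 8 days' growth and kept at 24/16° C, 14 h light, 65% humidity, watered twice daily.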
# [8] = tested on: AMARE; assay: as above; settings: Amaranthus retroflexus; application post-emergence; rate 1000 g/Ha; evaluated after 13 days
# How it was run: as §2
# [9] = tested on: ALOMY; assay: as above; settings: Alopecurus myosuroides; application post-emergence; rate 1000 g/Ha; evaluated after 13 days
# How it was run: as §2
# [10] = tested on: ABUTH; assay: as above; settings: Abutilon theophrasti; application post-emergence; rate 1000 g/Ha; evaluated after 13 days
# How it was run: as §2
# [11] = tested on: ECHCG; assay: as above; settings: Echinochloa crus-galli; application post-emergence; rate 1000 g/Ha; evaluated after 13 days
# How it was run: as §2
# [12] = tested on: ZEAMX; assay: as above; settings: Zea mays; application post-emergence; rate 1000 g/Ha; evaluated after 13 days
# How it was run: as §2
Compound,"SETFA damage score, application pre-emergence [1]","AMARE damage score, application pre-emergence [2]","ALOMY damage score, application pre-emergence [3]","ABUTH damage score, application pre-emergence [4]","ECHCG damage score, application pre-emergence [5]","ZEAMX damage score, application pre-emergence [6]",Post-emergence herbicidal activity SETFA (damage score 0-5) [7],Post-emergence herbicidal activity AMARE (damage score 0-5) [8],Post-emergence herbicidal activity ALOMY (damage score 0-5) [9],Post-emergence herbicidal activity ABUTH (damage score 0-5) [10],Post-emergence herbicidal activity ECHCG (damage score 0-5) [11],Post-emergence herbicidal activity ZEAMX (damage score 0-5) [12]
"C=CCC1C(O)N(c2cc(C(F)(F)F)ccn2)C(=O)N1C (stereo not drawn) [Compound A32, 5-allyl-4-hydroxy-1-methyl-3-[4-(trifluoromethyl)-2-pyridyl]imidazolidin-2-one]",4,5,4,5,5,2,5,5,5,5,5,2
"CN1C(=O)N(c2cc(C(F)(F)F)ccn2)C(O)C1C(F)(F)F (stereo not drawn) [Compound A33, 4-hydroxy-1-methyl-5-(trifluoromethyl)-3-[4-(trifluoromethyl)-2-pyridyl]imidazolidin-2-one]",3,5,3,4,2,0,2,3,4,5,1,1
CON1CC(O)N(c2cc(C(F)(F)F)ccn2)C1=O (stereo not drawn) [Compound A36],2,5,2,1,4,0,3,5,4,1,5,2
CN1C(=O)N(c2cc(C(F)(F)F)ccn2)C(O)C1OCC(F)(F)F (stereo not drawn) [Compound A39],2,5,4,5,3,1,5,5,5,5,5,1
CC1NC(=O)N(c2cc(C(F)(F)F)ccn2)C1O (stereo not drawn) [Compound A40],2,5,2,4,3,2,3,5,4,5,4,1
C=CCOC1C(O)N(c2cc(C(F)(F)F)ccn2)C(=O)N1C (stereo not drawn) [Compound A41],2,5,1,5,2,1,4,5,4,5,2,2
COC(OC)C1C(O)N(c2cc(C(F)(F)F)ccn2)C(=O)N1C (stereo not drawn) [Compound A42],3,4,0,1,0,0,2,4,2,4,0,1
CN1C(=O)N(c2cc(C(F)(F)F)ccn2)C(O)C1CO (stereo not drawn) [Compound A43],2,2,1,5,1,0,0,1,1,5,5,2
C#CCOC1C(O)N(c2cc(C(F)(F)F)ccn2)C(=O)N1C (stereo not drawn) [Compound A44],4,5,4,5,5,2,5,5,4,5,5,4
COCCOC1C(O)N(c2cc(C(F)(F)F)ccn2)C(=O)N1C (stereo not drawn) [Compound A45],3,5,2,5,3,1,3,5,2,5,3,1
O=C1N(c2cc(C(F)(F)F)ccn2)C(O)[C@@H]2CCCN12 (stereo partly drawn) [Compound A46],2,5,4,5,4,3,5,5,5,5,5,3
